Measured values reported in US7482008B1, “Human T cell reactive feline protein (TRFP) isolated from house dust and uses therefor” (Merck Patent GmbH, priority 1989, dated 2009).

How the values were obtained:
[1] = system: T cells from cat allergic patients; test: T cell proliferation of TRFP-primed T cells from cat allergic patients (tritiated thymidine), Example 5 Part A; format: cell-based, human
Description: Peripheral blood mononuclear cells (PBMC) were purified from 60 ml of heparinized blood from cat allergic patients. PBMC were subsequently treated as described below, although in individual cases, the length of time of cultivation with IL-2 and/or IL-4 and the specific peptides used for stimulation varied.
10 ml of PBMC from patient 131 at 10^6 /ml were cultured at 37° C. for 7 days in the presence of 5 μg purified TRFP/ml RPMI-1640 supplemented with 5% pooled human AB serum. Viable cells were purified by Ficoll-Hypaque centrifugation and cultured for three weeks at 5 units recombinant human IL-2/ml and 5 units recombinant human IL-4/ml. The resting T cells were then restimulated (secondary) with 5 μg TRFP at 2×10^5/ml in the presence of irradiated (3500 Rads) autologous PBMC at a concentration of 5×10^5/ml for three days, purified by Ficoll-Hypaque centrifugation and grown in 5 units IL-2 and 5 units IL-4/ml for two weeks. For assay, 2×10^4 resting secondary T cells were restimulated (tertiary) in the presence of 5×10^4 irradiated (3500 Rads) autologous PBMC or 2×10^4 transformed B cells (20,000 Rads) with various concentrations of allergens or their fragments in a volume of 200 microliters in a 96-well round bottom assay plates for 3 days. Each well then received 1 μCurie tritiated (methyl) thymidine for 16 hours. The counts incorporated were collected onto glass fiber filters and processed for liquid scintillation counting.
Antigens used: T cell reactive feline protein (TRFP), Hollister-Stier cat epithelium skin test reagent (CST), IPC ragweed pollen extract (pollen), and synthetic peptides derived from TRFP protein sequence (See FIGS. 6 and 7). Positive T cell proliferation is for these experiments was considered to be greater than 2.5 times the media control (T cells and antigen presenting cells alone).
Alternatively, PBMC were treated as follows: The primary stimulated cells were cultured in IL-2/IL-4 for two weeks. The resting T cells derived from this culture were tested in a secondary assay with some, but not all, of the above allergens. […] This type of epitope analysis has allowed the definition of T cell epitopes present in TRFP.

human IgE [2] = test: SDS/PAGE Western immunoblot of human IgE binding, plasma from patient #417; conditions: patient #417 plasma
Description: Western immunoblot analysis of the peptides produced in above was performed. The concentration of all protein samples (e.g., TRFP, recombinant chain 1 of TRFP, recombinant chain 2 of TRFP, peptide XYZ, peptide XZY, peptide YXZ, peptide YZX, peptide ZXY and peptide ZYX) for gel electrophoresis was determined by the BCA method (Pierce Co.). All protein samples were loaded on the gel at 5 μg/lane except TRFP at 10 μg/lane. Protein separation was carried out on a 15% acrylamide gel, and transfer was performed by electroblotting at 1.5 Amps for 1.5 hours onto nitrocellulose paper (Schleicher and Schuell, 0.1 microns) in a Hoeffer apparatus according to the protocol of Towbin, H., T. Stachlin, and J. Gordon, PNAS 76:4350 (1979). Proteins were rinsed in blot solution (25 mM Tris-HCl 7.5, 0.171 M NaCl and 0.5 ml/liter Tween 20). The blot was then blocked for one hour in blocking solution (1% milk in blot solution). Plasma from patient #417, used as a primary antibody source, was diluted in blocking solution to 10% and preabsorbed for 1.5 hours with unused nitrocellulose (2 cm×15 cm). The prepared human plasma was then incubated overnight on an orbital shaker with the protein blot section of interest. Following the first antibody incubation the blot section was washed three times, each wash involved a fifteen minute incubation in blot solution. The second antibody, specific for human IgE (biotinylated goat anti-human IgE, KPL Inc.), was diluted 1:2500 in blot solution and the incubation proceeded for two hours. Excess second antibody was subsequently removed by three 15 minute incubations with blot solution. ^125I Iodinated streptavidin (Amersham) was diluted 1:2500 in blot solution and incubated with blots for 1 hour, at 2 μCi in a 50 ml incubation volume. Blot sections were then washed with blot solution until the detectable radioactivity in the waste solution decreased to background levels. The blot section was then wrapped in saran wrap and exposed to film overnight with a cronex intensifying screen at −80° C.

human IgE [3] = test: ELISA of human IgE binding, plasma from patient #669; conditions: patient #669 plasma
Description: Corning assay plates (#25882-96) were coated with 10 μg/ml of each coating antigen (i.e., TRFP, chain 1 (recombinant chain 1 of TRFP), chain 2 (recombinant chain 2 of TRFP), peptide XYZ, peptide XZY, peptide YXZ, peptide YZX, peptide ZXY and peptide ZYX) listed in FIG. 34 at 50 μl/well and incubated overnight at 4° C. The coating antigens were removed and the wells were blocked with 0.5% gelatin in PBS, 200 μl/well for 2 hours at room temperature. Plasma from patient #669 was serially diluted with PBS-Tween 20 (PBS with 0.05% nonionic detergent Tween-20 Sigma, St. Louis Mo.) and 100 μl/well was added and incubated overnight at 4° C. (plasma dilutions are tested in duplicate). The second antibody (biotinylated goat anti-Human IgE, 1:1000, Kirkegaard & Perry Laboratories Inc. Gaithersburg, Md.), was added at 100 μl/well for one hour at room temperature. This solution was removed and streptavidin-HRPO, 1:10,000 (Southern Biotechnology Associates, Inc., Birmingham, Ala.) was then added at 100 μl/well for one hour at room temperature (all wells were washed three times with PBS-Tween between each incubation step). TMB Membrane Peroxidase Substrate system (Kirkegaard & Perry Laboratories) was freshly mixed, and added at 100 μl/well. The color was allowed to develop for 2-5 minutes. The reaction was stopped by the addition of 100 μl/well of 1M phosphoric acid. Plates were read on a Microplate EL 310 Autoreader (Biotek Instruments, Winooski, Vt.) with a 450 nm filter. The absorbance levels of duplicate wells were averaged.

mice = test: Biweekly subcutaneous administration, peptide specific antibody in sera; format: in vivo, mouse; conditions: for antibodies specific for peptide (IgG or IgE) in sera: 100 μg s.c. in PBS on days 0, 14, 28 and 56, alone or in combination; for IgG antibodies to peptide, sera dilution: animals injected with the peptides in CFA
Description: This animal model experiment was designed to simulate a human treatment protocol such as that described in Example 30. Mice were administered subcutaneous injections of 100 μg peptide/100 μl PBS on days 0, 14, 28 and 56. Mice were administered peptide X or peptide Y either alone or in combination. […] There was no specific binding above background levels for IgG or IgE.

Substance	IgE binding, Western immunoblot (human IgE [2])	IgE binding, ELISA (human IgE [3])	antibodies specific for peptide (IgG or IgE) in sera (mice)	IgG antibodies to peptide, sera dilution (mice)	also measured
NARILKNCVDAKMTEEDKE [Fel 4, TRFP chain 1 amino acids 37-55]					PI ([1]; Table 2, chain #1 TRFP peptides, average SI of responding patients multiplied by percent of patients with positive response (SI >2.5)): 601; SI ([1]; Table 2, chain #1 TRFP peptides, average cpm with antigen divided by cpm of T cells and APC alone, responding patients): 7.7
TRFP: human T cell reactive feline protein affinity purified from house dust; two covalently linked chains	reactivity	high level of IgE binding			
peptide X: amino acid residues 7-30 from chain 1 of TRFP (SEQ. ID. NO: 17); Table 2 lists Fel 8-3 as 7-33 (KRDVDLFLTGTPDEYVEQVAQYKALPV)			no antibodies specific for either peptide	1/4500	T cell stimulatory activity ([1]; summary in words of Tables 2 and 3): powerful activity
peptide Y: amino acid residues 29-55 from chain 1 of TRFP (SEQ. ID. NO: 18) (KALPVVLENARILKNCVDAKMTEEDKE)			no antibodies specific for either peptide	1/4500	
recombinant chain 1: recombinant TRFP chain 1 expressed in E. coli	strong IgE binding	somewhat lower binding			
